Experimental findings from ChEMBL document CHEMBL1201862, “PubChem BioAssay data set” (2004) are described below.

The term EC50 denotes the midpoint of the concentration-response curve. Broadly, the IC50 is the concentration at which inhibition is half-maximal. Broadly, the AC50 is the midpoint of the concentration-response curve, whichever way the signal moves.

Calls of active or inactive are those of the source.

The test system of one data set is Streptococcus. Description: GAS UMAA2166 growth inhibition – luminescence, BacTiterGlo, counter-screen for streptokinase expression inhibitor project, dose response (AID 1915).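 Further: potency for reduction of bacterial viability or growth.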 In kind it is functional, organism-based.
In another data set the target is T1, Streptokinase A (Streptococcus pyogenes serotype M1, UniProt P10520).
T1 sequence (P10520 whole entry): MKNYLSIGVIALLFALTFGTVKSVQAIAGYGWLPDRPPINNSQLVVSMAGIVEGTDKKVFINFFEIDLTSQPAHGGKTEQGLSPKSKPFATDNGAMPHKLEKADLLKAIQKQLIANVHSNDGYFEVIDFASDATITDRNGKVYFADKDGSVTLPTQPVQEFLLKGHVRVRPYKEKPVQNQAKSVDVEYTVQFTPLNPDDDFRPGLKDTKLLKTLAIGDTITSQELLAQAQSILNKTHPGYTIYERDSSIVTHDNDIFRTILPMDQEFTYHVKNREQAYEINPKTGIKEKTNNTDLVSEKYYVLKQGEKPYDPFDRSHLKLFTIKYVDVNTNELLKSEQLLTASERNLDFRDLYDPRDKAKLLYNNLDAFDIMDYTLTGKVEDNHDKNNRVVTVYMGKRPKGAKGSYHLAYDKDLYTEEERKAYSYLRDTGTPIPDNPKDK
The data set can be described thus: viability-normalized secreted streptokinase activity reduction – plasminogen activation absorbance, OD405, dose response (AID 1914).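 Further: secreted streptokinase activity via plasminogen activation per viability signal from cell pellet.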 It is filed as functional, Streptococcus pyogenes M1 GAS.

The subject of data set [1] is Streptococcus sp. 'group A'. The data set can be described thus: Streptococcus pyogenes SK(-)GAS viability under kanamycin – luminescence, BacTiterGlo, confirmation, counter-screen for streptokinase expression inhibitor project, dose response (AID 1900). In kind it is functional, organism-based.
The nature of data set [2]: viability of PTEN-deleted HCT116 cells – cell-based, HCT116 PTEN knockout, dose response (AID 1047).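 Further: HCT116 colon tumor cells with PTEN knocked out; cells exposed to compound for 60 hours before readout; potency for loss of cell viability measured by luminescence.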 In kind it is functional.
Data set [3] in a line: viability of HCT116 lacking mutant beta-catenin – cell-based, human colon tumor, dose response (AID 1045).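 Further: HCT116 colon tumor cells with beta catenin knocked out; cells exposed to compound for 60 hours.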 It is filed as functional.
For data set [4], the target named is T2, Rac GTPase-activating protein 1 (Homo sapiens, UniProt Q9H0H5).
T2 sequence (Q9H0H5 whole entry): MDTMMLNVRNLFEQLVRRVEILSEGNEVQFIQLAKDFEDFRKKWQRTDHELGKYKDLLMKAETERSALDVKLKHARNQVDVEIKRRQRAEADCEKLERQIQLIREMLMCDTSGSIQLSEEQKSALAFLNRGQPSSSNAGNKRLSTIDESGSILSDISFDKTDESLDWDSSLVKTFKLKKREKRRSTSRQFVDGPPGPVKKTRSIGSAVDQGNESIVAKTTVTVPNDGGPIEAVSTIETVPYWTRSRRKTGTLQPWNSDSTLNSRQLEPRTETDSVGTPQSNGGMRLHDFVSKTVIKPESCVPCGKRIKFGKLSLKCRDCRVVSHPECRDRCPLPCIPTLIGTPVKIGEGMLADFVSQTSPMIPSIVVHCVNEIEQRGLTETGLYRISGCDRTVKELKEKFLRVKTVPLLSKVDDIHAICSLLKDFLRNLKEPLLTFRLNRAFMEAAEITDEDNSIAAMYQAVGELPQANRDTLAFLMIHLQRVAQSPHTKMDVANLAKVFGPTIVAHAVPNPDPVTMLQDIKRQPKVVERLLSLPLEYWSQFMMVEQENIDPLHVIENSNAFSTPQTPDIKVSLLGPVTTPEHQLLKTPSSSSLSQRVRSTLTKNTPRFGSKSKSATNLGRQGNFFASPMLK
The data set can be described thus: blockers of MgcRacGAP-driven Rac1 GTP hydrolysis – biochemical, ADP Hunter fluorescence, primary and confirmatory, confirmation (AID 624330). It is filed as functional.

The target in the next data set is Cytochrome P450 2C19 (Homo sapiens, UniProt P33261). The data set can be described thus: Cytochrome panel assay with activity outcomes. Panel member name: p450-cyp2c19 Compounds with AC50 equal or less than 10 uM are considered active. It is filed as functional.
Cytochrome P450 2C19, sequence (P33261 whole entry): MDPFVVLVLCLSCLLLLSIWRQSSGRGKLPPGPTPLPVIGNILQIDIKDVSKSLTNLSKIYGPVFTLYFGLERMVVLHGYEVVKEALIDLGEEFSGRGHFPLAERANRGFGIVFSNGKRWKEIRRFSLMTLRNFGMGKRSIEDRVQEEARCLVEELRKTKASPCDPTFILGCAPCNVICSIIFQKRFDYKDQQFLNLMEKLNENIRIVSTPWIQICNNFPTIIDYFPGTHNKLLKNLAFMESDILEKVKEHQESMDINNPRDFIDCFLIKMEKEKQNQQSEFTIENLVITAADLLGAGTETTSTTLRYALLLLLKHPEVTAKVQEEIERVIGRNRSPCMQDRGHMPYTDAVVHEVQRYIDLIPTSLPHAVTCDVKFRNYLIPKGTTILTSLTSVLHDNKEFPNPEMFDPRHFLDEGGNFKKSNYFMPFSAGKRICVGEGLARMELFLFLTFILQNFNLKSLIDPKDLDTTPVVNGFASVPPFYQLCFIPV
Data set [5] in a line: luciferase reporter signal suppression in cells – H4 neuroglioma cells, luminescence, dose response (AID 1990). It is filed as functional, cell-based.
A short description of data set [6]: Luminescence Cell-Based Dose Response HTS to Identify Inhibitors of 5'UTR Stem-Loop Driven Prion Protein mRNA Translation in H4 Neuroglioblastoma Cells. [Related pubchem assays: 1827 (Project Summary), 1813 (Primary HTS)]. In kind it is functional.
The nature of data set [7]: alpha-synuclein stem-loop luciferase translation blockers – H4 neuroglioma cells, luminescence, confirmation (AID 1988). It is filed as functional, cell-based.
A short description of data set [8]: Luminescence Cell-Based Dose Retest to Confirm Inhibitors of Cancer Stem Cells. [Related pubchem assays (depositor defined):AID2717, AID2721]. It is filed as functional. Conditions: Homo sapiens.
The nature of data set [9]: NIH3T3 cell viability loss – ATP luminescence, mouse fibroblasts, counter-screen, dose response (AID 2010).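 Further: cells exposed to compound for about 90 hours before reading.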 In kind it is functional, cell-based.
Data set [10] in a line: Trypanosoma cruzi growth suppression in host cells – NIH3T3 host cells, beta-gal luminescence, confirmation (AID 2044).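 Further: intracellular parasites grown in NIH/3T3 mouse fibroblasts as host cells; luminescent beta-galactosidase reporter signal from transgenic T. cruzi replicating inside host cells; inhibitors lower the luminescence signal.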 In kind it is functional, cell-based.

Take `CC(=O)NC[C@H]1CN(c2ccc(N3CCOCC3)c(F)c2)C(=O)O1` [LINEZOLID]: the values for the concentration giving a half-maximal response (EC50) (in the data set with Streptococcus; at Streptokinase A; in data set [1]) were 0.645 µM (active), 6 µM (inconclusive) and 0.17 µM (active), respectively.
Take `CC(OC(=O)CC1CCCC1)C(=O)Nc1ccc(S(N)(=O)=O)cc1` (centres undefined): the EC50 (with Streptococcus; at Streptokinase A; in data set [1]) was > 150 µM (not active) each time.
As to `CN(C(=O)CSc1nc(C2CC2)nc2ccccc12)c1nc(-c2ccccc2)cs1`, the EC50 in data set [2] is 14.7 µM (active); in [3] it was 12.7 µM (active).
In the case of `COc1ccc(O)c(C(=O)c2coc(=N)c(C(=O)Nc3ccc(SC(F)F)cc3)c2)c1`, the EC50 with Streptococcus was > 150 µM (not active); at Streptokinase A it was > 150 µM (not active); in data set [1] it was 40.6 µM (active).
For the compound `CN(C)c1ccc(N/C=C/C(=O)C(C)(C)C)cc1`, the half-maximal inhibitory concentration (IC50) in data set [4] was 7.98 µM (active).
Take `COc1ccc(-c2nc(/C=C3\C(C)=Nc4ccccc43)c(O)o2)cc1`: the 50% effective concentration (EC50) in the data set with Streptococcus is 12.1 µM (active); on Streptokinase A, > 150 µM (not active); in [1], 3.54 µM (active).
As for `Cc1ccc(Oc2cc(N3CCOCC3)nc(-c3ccccc3)n2)cc1`, the AC50 on Cytochrome P450 2C19 (read-out: AC50) was 2.24 µM (inconclusive).
Consider `O=C(Cc1csc(Nc2[nH]c(=S)nc3ccccc23)n1)NCCCN1CCN(c2cccc(Cl)c2)CC1`, for which, on Streptokinase A, the EC50 is > 150 µM (not active).
Turning to `COc1cccc(CN2CCC(C(=O)N3CCC(C)CC3)CC2)c1`, in data set [4], the half-inhibitory concentration (IC50) is 162 µM (active).
As for `O=S(=O)(Nc1cc(O)nc(SCc2ccccc2Cl)n1)c1ccccc1`, the EC50 is > 120 µM (not active) in data set [5], > 120 µM (not active) in data set [6] and 12.8 µM (active) in [7].
As for `CCOC(=O)N1CCN(C(=O)c2ccc3c(c2)N(C)C(=O)/C(=C\c2ccc(OCC)c(OC)c2)S3)CC1`, the EC50 is 4.57 µM (active) in the data set with Streptococcus, > 150 µM (not active) at Streptokinase A and 0.624 µM (active) in data set [1].
Regarding `Cc1ccc(CN2CCN(Cc3ccccc3F)CC2)cc1`, the IC50 in data set [4] was 76.6 µM (active).
On to `CN1CCC(=C2c3ccccc3CCc3sccc32)CC1`, for which the AC50 on Cytochrome P450 2C19 (read-out: AC50) was 3.98 µM (inconclusive).
On to `O=C(c1cccc([N+](=O)[O-])c1)N1CCN(c2cccc(Cl)c2)CC1`, for which the concentration for a half-maximal effect (EC50) in data set [2] was 4.8 µM (active); in [3], 5.22 µM (active).
Consider `Cc1ccc(C(C(=O)NCc2ccco2)N(C(=O)CNC(=O)c2cccs2)c2c(C)cccc2C)cc1` (centres undefined), for which the values for the half-maximal effective concentration (EC50) in data set [2] and in data set [3] were 6.55 µM (active) and 8.32 µM (active), respectively.
For `CCOc1ccc(-n2c([S-])c(C(=O)Nc3ccc(S(=O)(=O)N4CCOCC4)cc3)[n+]3cc(C(N)=O)ccc23)cc1`, the values for the half-maximal effective concentration (EC50) in data set [5], in [6] and in data set [7] were 24.1 µM (active), > 120 µM (not active) and 17.5 µM (active), respectively.
For the compound `Cc1cccc(Oc2cc(NC(=O)Cn3cnc([N+](=O)[O-])n3)cc([N+](=O)[O-])c2)c1`, the concentration for a half-maximal effect (EC50) in [2] is 36.1 µM (active); in [3], 28.7 µM (active).
Take `COc1cc(/C=N/NC(=O)c2ccccc2NS(=O)(=O)c2cccs2)ccc1O`: in data set [4], the IC50 is 74.5 µM (active).
Turning to `CC(C)CNCCc1ccccn1`, the AC50 entry on Cytochrome P450 2C19 was “inconclusive”.
Consider `O=C(O)Cc1sc(-c2ccc(Cl)cc2)nc1-c1ccccc1`, for which the half-maximal activity concentration (AC50) on Cytochrome P450 2C19 (read-out: AC50) was 14.1 µM (inconclusive).
For the compound `CCN1CCN(CC(=O)Nc2cc(C(F)(F)F)ccc2OCCOC)CC1`, the IC50 in data set [4] was 48.5 µM (active).
In the case of `OCCCCC#Cc1c(-c2ccsc2)sc2ccccc12`, the AC50 in data set [8] is 3.15 µM (active). Besides, the EC50 with Streptococcus was 8.45 µM (active); at Streptokinase A, > 150 µM (not active); in data set [1] it was 6.64 µM (active).
With `N#CC1=C(N)OC2=C(CCc3ccccc32)C1c1ccccc1Cl` (centres undefined), the EC50 in the data set on Streptococcus is 18.9 µM (active); at Streptokinase A, 11.9 µM (active); in data set [1], 4.61 µM (active).
Turning to `COc1ccccc1NC(=O)CSc1nnc(COc2ccc(Cl)cc2)n1Cc1ccco1`, the half-maximal effective concentration (EC50) in [5] was > 120 µM (not active); in data set [6] it was > 120 µM (not active); in [7], 48 µM (active).
For `CC(C)(C)CC(C)(C)NCC(=O)Nc1c2c(nc3ccccc13)CCC2`, the IC50 in data set [4] is 88.7 µM (active).
For the compound `COc1ccc(C2=NN(CN3C(=O)C(=O)c4ccccc43)C(c3ccc(Br)cc3)C2)cc1` (centres undefined), the EC50 in data set [2] is 27.3 µM (active); in [3], 26.2 µM (active).
Consider `Cc1ccc(NCCCCO)cc1C`, for which the IC50 in [4] is 35.9 µM (active).
Regarding `CCC(C)c1ccccc1NS(=O)(=O)c1cnn(CC)c1` (centres undefined), the EC50 (in the data set on Streptococcus; on Streptokinase A; in data set [1]) was > 150 µM (not active) in each case.
For the compound `CCOC(=O)c1[nH]c2ccccc2c1N=C(S)Nc1cc(C)ccc1C`, the IC50 in data set [4] is 77.5 µM (active).
The same measure, in the same setting: for `O=C(c1ccc(F)cc1)N1CCN(C2CCCCC2)CC1` the value was 196 µM (active).
Consider `NCCS(=O)(=O)NC1CCCCC1`, for which the EC50 (in the data set with Streptococcus; at Streptokinase A; in data set [1]) was > 150 µM (not active) throughout.
As for `O=C(O)CC[C@@H](C(=O)O)N1C(=O)[C@@H]2[C@@H]3CC[C@H](C3)[C@@H]2C1=O`, the AC50 entry at Cytochrome P450 2C19 is reported as “inconclusive”.
For the compound `CN(C)c1ccc(C2C=C(c3ccc(Cl)cc3OC(F)F)Nc3ncnn32)cc1` (centres undefined), the EC50 is 16.4 µM (active) in the data set with Streptococcus, > 150 µM (not active) on Streptokinase A and 9.65 µM (active) in data set [1].
For the compound `Cc1cccc(C)c1OCc1nc2ccccc2c(=O)n1/N=C/c1c[nH]c2ccccc12`, the EC50 is > 30 µM (not active) in data set [9], 23.6 µM (active) in [2], 1.14 µM (active) in data set [10] and 24.7 µM (active) in data set [3].
In the case of `CCCS(=O)(=O)N1CCN(CC2CC3C=CC2C3)CC1` (centres undefined), the IC50 in data set [4] is 205 µM (active).
As for `CC(C)=CCc1c(-c2ccc(O)cc2O)oc2cc3c(c(O)c2c1=O)C=CC(C)(C)O3` [CUDRAFLAVONE B], the EC50 in the data set with Streptococcus is 4.94 µM (active); on Streptokinase A it was > 150 µM (not active); in data set [1], 3.36 µM (active).
For `Cc1cc(-c2nnc(S)n2/N=C/c2ccc(Br)s2)[nH]n1`, the IC50 in data set [4] was 91.6 µM (active).
Take `COc1cccc(-c2nc(NCCNC(C)=O)c3ccccc3n2)c1`: the AC50 at Cytochrome P450 2C19 (read-out: AC50) was 15.8 µM (inconclusive).
For the compound `CCOC(=O)c1c(NC(=O)c2c(N)n(CCCOC)c3nc4ccccc4nc23)sc2c1CCCC2`, the EC50 was 25.1 µM (active) with Streptococcus; > 60 µM (not active) in data set [9]; > 150 µM (not active) on Streptokinase A; 4.29 µM (active) in data set [1]; 2.74 µM (active) in [10].
With `C=CCn1c(SCC(=O)Nc2ccc(O)cc2)nc2sc(CC)cc2c1=O`, the IC50 in data set [4] was 54.5 µM (active).
Regarding `COCCn1c(=O)c(CCc2ccccc2)nc2cnc(N3CCN(C)CC3)nc21`, the AC50 at Cytochrome P450 2C19 (read-out: AC50) is 10 µM (inconclusive).
On the same count and under the same terms, under `O=C(NCCCN1CCCC1=O)c1ccc(CNS(=O)(=O)c2ccc(F)cc2)cc1` stands 39.8 µM (inconclusive).
Regarding `COc1cccc(CNCc2ccccc2Br)c1OC`, in data set [4], the IC50 is 145 µM (active).
